Laboratory results: patent publication US20250090573A1, “COMPOSITIONS FOR DELIVERING NITRIC OXIDE AND FLUORIDE AND METHODS FOR MAKING AND USING THE SAME” (University of Georgia Research Foundation, Inc., priority 2022, published 2025)

Tests used:
hFOB 1.19 = experiment: Cellular cytotoxicity of GSNO and precursor sol materials (CCK-8); assay type: cell-based, human; settings: hFOB 1.19 cells, direct contact exposure
Method: (§1) The cell lines HGF and hFOB 1.19 were cultured for cytocompatibility assessments. HGF cells were cultured in fibroblast basal medium supplemented with the manufacturer's recommended growth kit (2% fetal bovine serum, 50 μg/mL ascorbic acid, 5 μg/mL rh insulin, […] hydrocortisone hemisuccinate, 5 ng/mL rh FGF b, and 7.5 mM L-glutamine) and penicillin-streptomycin (10 units/mL and 10 μg/mL, respectively). hFOB 1.19 cells were maintained in a 1:1 mixture of Ham's F12 Medium and Dulbecco's Modified Eagle's Medium supplemented with L-glutamine (2.5 mM), fetal bovine serum (10%) and G418 (0.3 mg/mL). Both cell types were incubated at 37° C. in a 5% CO2 humified atmosphere. Medium was replaced every 48 h and both cell lines were subcultured once monolayers were 80% confluent. Cells were detached from the flask surface via enzymatic treatment with 0.05% trypsin and 5 mM EDTA for 5 min, with isolation of cell pellets via centrifugation at 200 RCF for 5 min.
(§2) The cellular cytotoxicity of GSNO against HGF and hFOB 1.19 cells was tested over 24 h direct contact experiments. […] A separate set of wells containing only media and the dye (n=5) were also prepared to account for background readings. The absorbance of each well was measured at 450 nm, adjusted against the average absorbance reading of the wells with only media. […]

[1] = GSNO/NO loading by chemiluminescence NO analyzer (Cu1+ depletion); assay type: physicochemical; settings: hydrogel precursor sol, aqueous with cosolvent or surfactant or cyclodextrin; read-out: GSNO sol concentration after which solubility is incomplete
HGF = assay type: cell-based; settings: human, 24 h
Method: as §1, §2

- solubility [1]: ≤ 30 mg/mL
Compound: N[C@@H](CCC(=O)N[C@@H](CSN=O)C(=O)NCC(=O)O)C(=O)O [GSNO, S-Nitrosoglutathione]
- GSNO treatment eliciting cytotoxic response (hFOB 1.19): ~400 µg/mL
- GSNO treatment eliciting cytotoxic response (HGF): greater than 100 μg/mL
